From ChEMBL document CHEMBL4376820, “Homodimeric Tobramycin Adjuvant Repurposes Novobiocin as an Effective Antibacterial Agent against Gram-Negative Bacteria” (J Med Chem, 2019)

Experiments:
Pseudomonas aeruginosa [1] = test: Synergistic antibacterial activity against wild type Pseudomonas aeruginosa PAO1 assessed as potentiation of meropenem-induced antibacterial effect incubated for 18 hrs by checkerboard assay relative to meropenem alone; format: functional
Enterobacter cloacae [2] = test: Potentiation of novobiocin-induced antibacterial activity against Enterobacter cloacae 117029 clinical solate assessed as fold reduction in novobiocin MIC incubated for 18 hrs by CLSI protocol based assay relative to novobiocin MIC; format: functional
Acinetobacter baumannii [3] = test: Potentiation of novobiocin-induced antibacterial activity against wild type Acinetobacter baumannii ATCC 17978 assessed as fold reduction in novobiocin MIC incubated for 18 hrs by CLSI protocol based assay relative to novobiocin MIC; format: functional
Pseudomonas aeruginosa [4] = test: Synergistic antibacterial activity against wild type Pseudomonas aeruginosa PAO1 assessed as potentiation of fosfomycin-induced antibacterial effect incubated for 18 hrs by checkerboard assay relative to fosfomycin alone; format: functional
Acinetobacter baumannii [5] = test: Antibacterial activity against wild type Acinetobacter baumannii ATCC 17978 incubated for 18 hrs by CLSI protocol based assay; format: functional; settings: ATCC 17978, 18 h
Pseudomonas aeruginosa [6] = test: Synergistic antibacterial activity against wild type Pseudomonas aeruginosa PAO1 assessed as potentiation of rifampicin-induced antibacterial effect incubated for 18 hrs by checkerboard assay; format: functional, organism-based
Pseudomonas aeruginosa [7] = test: Synergistic antibacterial activity against wild type Pseudomonas aeruginosa PAO1 assessed as potentiation of chloramphenicol-induced antibacterial effect incubated for 18 hrs by checkerboard assay relative to chloramphenicol alone; format: functional
Pseudomonas aeruginosa [8] = test: Potentiation of novobiocin-induced antibacterial activity against mexAB-oprM/mexCD-oprJ/mexEF-oprN/mexJK/mexXY/opmH mutant deficient Pseudomonas aeruginosa PAO750 assessed as novobiocin MIC at <= 7.1 uM incubated for 18 hrs by CLSI protocol based assay (reference value: 32 ug/ml); format: functional; settings: PAO750, 18 h
Enterobacter cloacae [9] = test: Potentiation of novobiocin-induced antibacterial activity against colistin-resistant Enterobacter cloacae 118568 clinical solate assessed as fold reduction in novobiocin MIC incubated for 18 hrs by CLSI protocol based assay relative to novobiocin MIC; format: functional
Acinetobacter baumannii [10] = test: Antibacterial activity against Acinetobacter baumannii 031 clinical incubated for 18 hrs by CLSI protocol based assay; format: functional; settings: Acinetobacter baumannii, 031, 18 h
Pseudomonas aeruginosa [11] = test: Potentiation of novobiocin-induced antibacterial activity against colistin and carbapenem-resistant Pseudomonas aeruginosa 101243 clinical isolate assessed as novobiocin MIC at <= 7.1 uM incubated for 18 hrs by CLSI protocol based assay (reference value: 128 ug/ml); format: functional; settings: Pseudomonas aeruginosa, 101243, 18 h
Escherichia coli [12] = test: Bactericidal activity against Escherichia coli ATCC […] assessed as log reduction in colony forming units per ml at 7.1 uM in LB media after 6 hrs in presence of 50.4 uM novobiocin by time-kill assay; format: functional
Pseudomonas aeruginosa [13] = test: Synergistic antibacterial activity against wild type Pseudomonas aeruginosa PAO1 assessed as potentiation of moxifloxacin-induced antibacterial effect incubated for 18 hrs by checkerboard assay; format: functional, organism-based
Acinetobacter baumannii [14] = test: Potentiation of novobiocin-induced antibacterial activity against Acinetobacter baumannii LAC-4 clinical isolate assessed as novobiocin MIC at <= 7.1 uM incubated for 18 hrs by CLSI protocol based assay (reference value: 8 ug/ml); format: functional; settings: LAC-4, 18 h
Acinetobacter baumannii [15] = test: Antibacterial activity against colistin-resistant Acinetobacter baumannii ATCC 17978 mutant generated from seven serial passages by checkerboard assay; format: functional
Escherichia coli [16] = test: Antibacterial activity against colistin-resistant Escherichia coli 94474 clinical isolate harboring mcr-1 gene incubated for 18 hrs by CLSI protocol based assay; format: functional; settings: Escherichia coli, 94474, 18 h
Acinetobacter baumannii [17] = test: Bactericidal activity against Acinetobacter baumannii ATCC 17978 assessed as log reduction in colony forming units per ml at 7.1 uM in LB media after 9 hrs in presence of 50.4 uM novobiocin by time-kill assay; format: functional
Pseudomonas aeruginosa [18] = test: Potentiation of novobiocin-induced antibacterial activity against carbapenem-resistant Pseudomonas aeruginosa 264-104354 clinical isolate assessed as novobiocin MIC at <= 7.1 uM incubated for 18 hrs by CLSI protocol based assay (reference value: 512 ug/ml); format: functional; settings: 264-104354, 18 h
Pseudomonas aeruginosa [19] = test: Potentiation of novobiocin-induced antibacterial activity against carbapenem-resistant Pseudomonas aeruginosa 260-97103 clinical isolate assessed as novobiocin MIC at <= 7.1 uM incubated for 18 hrs by CLSI protocol based assay (reference value: 256 ug/ml); format: functional; settings: 260-97103, 18 h
HEK293 = test: Cytotoxicity against human HEK293 cells at 50 uM incubated for 48 hrs by PrestoBlue dye based fluorescence assay; format: cell-based; settings: hek293, 48 h
Pseudomonas aeruginosa [20] = test: Antibacterial activity against Pseudomonas aeruginosa 259-96918 clinical isolate incubated for 18 hrs by CLSI protocol based assay; format: functional; settings: 259-96918, 18 h
Acinetobacter baumannii [21] = test: Potentiation of novobiocin-induced antibacterial activity against colistin-resistant Acinetobacter baumannii 92247 clinical isolate assessed as novobiocin MIC at <= 7.1 uM incubated for 18 hrs by CLSI protocol based assay (reference value: 4 ug/ml); format: functional; settings: Acinetobacter baumannii, 92247, 18 h
Escherichia coli [22] = test: Bactericidal activity against Escherichia coli ATCC […] assessed as log reduction in colony forming units per ml at 7.1 uM in LB media after 9 hrs by time-kill assay; format: functional
Pseudomonas aeruginosa [23] = test: Synergistic antibacterial activity against wild type Pseudomonas aeruginosa PAO1 assessed as potentiation of ceftazidime-induced antibacterial effect incubated for 18 hrs by checkerboard assay relative to ceftazidime alone; format: functional
Klebsiella pneumoniae = test: Antibacterial activity against colistin-resistant Klebsiella pneumoniae 113254 clinical isolate incubated for 18 hrs by CLSI protocol based assay; format: functional; settings: Klebsiella pneumoniae, 113254, 18 h
Pseudomonas aeruginosa [24] = test: Antibacterial activity against mexAB-oprM mutant deficient Pseudomonas aeruginosa PAO200 incubated for 18 hrs by CLSI protocol based assay; format: functional; settings: PAO200, 18 h
Pseudomonas aeruginosa [25] = test: Potentiation of novobiocin-induced antibacterial activity against carbapenem-resistant Pseudomonas aeruginosa 264-104354 clinical isolate assessed as fold reduction in novobiocin MIC incubated for 18 hrs by CLSI protocol based assay relative to novobiocin MIC; format: functional
Acinetobacter baumannii [26] = test: Potentiation of novobiocin-induced antibacterial activity against Acinetobacter baumannii 031 clinical isolate assessed as fold reduction in novobiocin MIC incubated for 18 hrs by CLSI protocol based assay relative to novobiocin MIC; format: functional
Pseudomonas aeruginosa [27] = test: Potentiation of novobiocin-induced antibacterial activity against carbapenem-resistant Pseudomonas aeruginosa 262-101856 clinical isolate assessed as fold reduction in novobiocin MIC incubated for 18 hrs by CLSI protocol based assay relative to novobiocin MIC; format: functional
Pseudomonas aeruginosa [28] = test: Synergistic antibacterial activity against wild type Pseudomonas aeruginosa PAO1 assessed as potentiation of minocycline-induced antibacterial effect incubated for 18 hrs by checkerboard assay; format: functional, organism-based
Acinetobacter baumannii [29] = test: Antibacterial activity against novobiocin-resistant Acinetobacter baumannii ATCC 17978 mutant generated from seven serial passages by checkerboard assay; format: functional
Acinetobacter baumannii [30] = test: Antibacterial activity against Acinetobacter baumannii 110193 clinical isolate incubated for 18 hrs by CLSI protocol based assay; format: functional; settings: Acinetobacter baumannii, 110193, 18 h
Escherichia coli [31] = test: Potentiation of novobiocin-induced antibacterial activity against wild type Escherichia coli ATCC 25922 assessed as fold reduction in novobiocin MIC incubated for 18 hrs by CLSI protocol based assay relative to novobiocin MIC; format: functional

NC[C@H]1O[C@H](O[C@H]2[C@H](OCCCCc3cn(CCCCO[C@@H]4[C@@H](O[C@H]5O[C@H](CO)[C@@H](O)[C@H](N)[C@H]5O)[C@H](N)C[C@H](N)[C@H]4O[C@H]4O[C@H](CN)[C@@H](O)C[C@H]4N)nn3)[C@@H](O[C@H]3O[C@H](CO)[C@@H](O)[C@H](N)[C@H]3O)[C@H](N)C[C@@H]2N)[C@H](N)C[C@@H]1O.O=C(O)C(F)(F)F.O=C(O)C(F)(F)F.O=C(O)C(F)(F)F.O=C(O)C(F)(F)F.O=C(O)C(F)(F)F.O=C(O)C(F)(F)F.O=C(O)C(F)(F)F.O=C(O)C(F)(F)F.O=C(O)C(F)(F)F.O=C(O)C(F)(F)F
fold change (FC) (Pseudomonas aeruginosa [1]): 4 - 128
Ratio (Enterobacter cloacae [2]): 128
Ratio (Acinetobacter baumannii [3]): 32
fold change (FC) (Pseudomonas aeruginosa [4]): 4 - 128
MIC (Acinetobacter baumannii [5]): > 128 mg/L
Activity (Pseudomonas aeruginosa [6]): Dose-dependent effect
fold change (FC) (Pseudomonas aeruginosa [7]): 4 - 128
MIC (Pseudomonas aeruginosa [8]): 0.125 mg/L
Ratio (Enterobacter cloacae [9]): 32
MIC (Acinetobacter baumannii [10]): > 128 mg/L
MIC (Pseudomonas aeruginosa [11]): 1 mg/L
Activity (Escherichia coli [12]): -5 CFU/ml
Activity (Pseudomonas aeruginosa [13]): Dose-dependent effect
MIC (Acinetobacter baumannii [14]): 0.5 mg/L
MIC (Acinetobacter baumannii [15]): < 0.031 mg/L
MIC (Escherichia coli [16]): > 128 mg/L
Activity (Acinetobacter baumannii [17]): -5 CFU/ml
MIC (Pseudomonas aeruginosa [18]): 8 mg/L
MIC (Pseudomonas aeruginosa [19]): 1 mg/L
Activity (HEK293): Non-Toxic
MIC (Pseudomonas aeruginosa [20]): > 128 mg/L
MIC (Acinetobacter baumannii [21]): 0.25 mg/L
Activity (Escherichia coli [22]): -2 CFU/ml
fold change (FC) (Pseudomonas aeruginosa [23]): 4 - 128
MIC (Klebsiella pneumoniae): > 128 mg/L
MIC (Pseudomonas aeruginosa [24]): > 128 mg/L
Ratio (Pseudomonas aeruginosa [25]): 64
Ratio (Acinetobacter baumannii [26]): 16
Ratio (Pseudomonas aeruginosa [27]): 64
Activity (Pseudomonas aeruginosa [28]): Dose-dependent effect
MIC (Acinetobacter baumannii [29]): 128 mg/L
MIC (Acinetobacter baumannii [30]): > 128 mg/L
Ratio (Escherichia coli [31]): 32
